Laboratory results from patent US8952157B2, “Apoptosis-inducing agents for the treatment of cancer and immune and autoimmune diseases” (AbbVie Inc., priority 2008, dated 2015).

Each molecule was assayed against GST-Bcl-2 (Homo sapiens (Human), UniProt P10415) (assay: Time Resolved-Fluorescence Resonance Energy Transfer (TR-FRET) Bcl-2 binding assay). Conditions: GST-Bcl-2 1 nM, F-Bak peptide probe 100 nM, Tb-anti-GST antibody 1 nM; Ki by Wang's equation.
GST-Bcl-2, sequence (P10415 whole entry): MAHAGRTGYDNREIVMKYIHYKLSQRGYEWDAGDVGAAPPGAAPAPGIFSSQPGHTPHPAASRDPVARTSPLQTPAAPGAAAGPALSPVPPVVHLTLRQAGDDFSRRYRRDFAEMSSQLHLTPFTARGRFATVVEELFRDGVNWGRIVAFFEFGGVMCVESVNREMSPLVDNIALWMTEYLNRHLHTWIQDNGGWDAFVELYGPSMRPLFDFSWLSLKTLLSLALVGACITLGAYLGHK
Procedure, shortened: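 Ki values derived from TR-FRET displacement of F-Bak peptide from GST-Bcl-2, detected with Tb-labelled anti-GST antibody (ex 340, em 520/495 nm). Compound dilution series started at 50 μM (2× starting concentration); room-temperature incubation 3 hours.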
`CC1(C)CCC(CN2CCN(c3ccc(C(=O)NS(=O)(=O)c4ccc(NCC5CCOCC5)c([N+](=O)[O-])c4)c(Oc4cc(N)cc(Cl)c4)c3)CC2)=C(c2ccc(Cl)cc2)C1` [Example 309, 2-(3-amino-5-chlorophenoxy)-4-(4-{[2-(4-chlorophenyl)-4,4-dimethylcyclohex-1-en-1-yl]methyl}piperazin-1-yl)-N-({3-nitro-4-[(tetrahydro-2H-pyran-4-ylmethyl)amino]phenyl}sulfonyl)benzamide] gave a Ki of 0.69 nM. With `CC1(C)CCC(CN2CCN(c3ccc(C(=O)NS(=O)(=O)c4ccc(NCC5CCOCC5)c([N+](=O)[O-])c4)c(Oc4ccccc4-c4cn[nH]c4)c3)CC2)=C(c2ccc(Cl)cc2)C1` [Example 406, 4-(4-{[2-(4-chlorophenyl)-4,4-dimethylcyclohex-1-en-1-yl]methyl}piperazin-1-yl)-N-({3-nitro-4-[(tetrahydro-2H-pyran-4-ylmethyl)amino]phenyl}sulfonyl)-2-[2-(1H-pyrazol-4-yl)phenoxy]benzamide] the Ki was 0.166 nM. In the case of `O=C(NS(=O)(=O)c1ccc(NCC2CCOCC2)c([N+](=O)[O-])c1)c1ccc(N2CCN(Cc3ccccc3-c3ccc(Cl)cc3)CC2)cc1Oc1cccc(N2CCOCC2)c1` [Example 89, 4-(4-((4′-chloro-1,1′-biphenyl-2-yl)methyl)piperazin-1-yl)-2-(3-morpholin-4-ylphenoxy)-N-((3-nitro-4-((tetrahydro-2H-pyran-4-ylmethyl)amino)phenyl)sulfonyl)benzamide], the Ki is reported as 6.11 nM. For `CN(C)CCCc1ccccc1Oc1cc(N2CCN(Cc3ccccc3-c3ccc(Cl)cc3)CC2)ccc1C(=O)NS(=O)(=O)c1ccc(NCC2CCOCC2)c([N+](=O)[O-])c1` [Example 28, 4-(4-((4′-chloro-1,1′-biphenyl-2-yl)methyl)piperazin-1-yl)-2-(2-(3-(dimethylamino)propyl)phenoxy)-N-((3-nitro-4-((tetrahydro-2H-pyran-4-ylmethyl)amino)phenyl)sulfonyl)benzamide], the Ki was 1.33 nM. For `CC1(C)CCC(CN2CCN(c3ccc(C(=O)NS(=O)(=O)c4ccc(NCC5CCOCC5)c([N+](=O)[O-])c4)c(Oc4ccc5c(c4)CC(=O)N5)c3)CC2)=C(c2ccc(Cl)cc2)C1` [Example 267, 4-(4-{[2-(4-chlorophenyl)-4,4-dimethylcyclohex-1-en-1-yl]methyl}piperazin-1-yl)-N-({3-nitro-4-[(tetrahydro-2H-pyran-4-ylmethyl)amino]phenyl}sulfonyl)-2-[(2-oxo-2,3-dihydro-1H-indol-5-yl)oxy]benzamide], the Ki was 28.4 nM. For `CN(C)Cc1ccccc1Oc1cc(N2CCN(Cc3ccccc3-c3ccc(Cl)cc3)CC2)ccc1C(=O)NS(=O)(=O)c1ccc(NCC2CCOCC2)c([N+](=O)[O-])c1` [Example 31, 4-(4-((4′-chloro-1,1′-biphenyl-2-yl)methyl)piperazin-1-yl)-2-(2-((dimethylamino)methyl)phenoxy)-N-((3-nitro-4-((tetrahydro-2H-pyran-4-ylmethyl)amino)phenyl)sulfonyl)benzamide], the Ki was 2.01 nM. `Cc1n[nH]c2cccc(Oc3cc(N4CCN(CC5=C(c6ccc(Cl)cc6)CC(C)(C)CC5)CC4)ccc3C(=O)NS(=O)(=O)c3ccc(NCCCN4CCOCC4)c([N+](=O)[O-])c3)c12` [Example 44, 4-(4-((2-(4-chlorophenyl)-4,4-dimethylcyclohex-1-en-1-yl)methyl)piperazin-1-yl)-2-((3-methyl-1H-indazol-4-yl)oxy)-N-((4-((3-morpholin-4-ylpropyl)amino)-3-nitrophenyl)sulfonyl)benzamide] gave a Ki of 0.036 nM. With `CC1(C)CCC(CN2CCN(c3ccc(C(=O)NS(=O)(=O)c4ccc(NC5CCN(C6CCOCC6)CC5)c([N+](=O)[O-])c4)c(Oc4cccc(F)c4)c3)CC2)=C(c2ccc(Cl)cc2)C1` [Example 113, 4-(4-{[2-(4-chlorophenyl)-4,4-dimethylcyclohex-1-en-1-yl]methyl}piperazin-1-yl)-2-(3-fluorophenoxy)-N-({3-nitro-4-[(1-tetrahydro-2H-pyran-4-ylpiperidin-4-yl)amino]phenyl}sulfonyl)benzamide] the Ki was 0.032 nM. `CC1(C)CCC(CN2CCN(c3ccc(C(=O)NS(=O)(=O)c4ccc(NCC5CCOCC5)c([N+](=O)[O-])c4)c(Oc4ccc(N)c(Cl)c4)c3)CC2)=C(c2ccc(Cl)cc2)C1` [Example 247, 2-(4-amino-3-chlorophenoxy)-4-(4-{[2-(4-chlorophenyl)-4,4-dimethylcyclohex-1-en-1-yl]methyl}piperazin-1-yl)-N-({3-nitro-4-[(tetrahydro-2H-pyran-4-ylmethyl)amino]phenyl}sulfonyl)benzamide] gave a Ki of 0.039 nM. In the case of `CC1(C)CCC(CN2CCN(c3ccc(C(=O)NS(=O)(=O)c4ccc(N[C@@H]5CCN(Cc6cscn6)C[C@@H]5O)c([N+](=O)[O-])c4)c(Oc4cc5cc[nH]c5cc4F)c3)CC2)=C(c2ccc(Cl)cc2)C1` [Example 249, 4-(4-{[2-(4-chlorophenyl)-4,4-dimethylcyclohex-1-en-1-yl]methyl}piperazin-1-yl)-2-[(6-fluoro-1H-indol-5-yl)oxy]-N-[(4-{[(3S,4R)-3-hydroxy-1-(1,3-thiazol-4-ylmethyl)piperidin-4-yl]amino}-3-nitrophenyl)sulfonyl]benzamide], the Ki is reported as 0.168 nM. With `CC1(C)CCC(CN2CCN(c3ccc(C(=O)NS(=O)(=O)c4ccc(NCC5CCOCC5)c([N+](=O)[O-])c4)c(Oc4cnc(N)c(Cl)c4)c3)CC2)=C(c2ccc(Cl)cc2)C1` [Example 318, 2-[(6-amino-5-chloropyridin-3-yl)oxy]-4-(4-{[2-(4-chlorophenyl)-4,4-dimethylcyclohex-1-en-1-yl]methyl}piperazin-1-yl)-N-({3-nitro-4-[(tetrahydro-2H-pyran-4-ylmethyl)amino]phenyl}sulfonyl)benzamide] the Ki was less than 0.01 nM. `CC1(C)CCC(CN2CCN(c3ccc(C(=O)NS(=O)(=O)c4ccc(NCC5CCOCC5)c([N+](=O)[O-])c4)c(Oc4cc(N)nc(Br)c4)c3)CC2)=C(c2ccc(Cl)cc2)C1` [Example 379, 2-[(2-amino-6-bromopyridin-4-yl)oxy]-4-(4-{[2-(4-chlorophenyl)-4,4-dimethylcyclohex-1-en-1-yl]methyl}piperazin-1-yl)-N-({3-nitro-4-[(tetrahydro-2H-pyran-4-ylmethyl)amino]phenyl}sulfonyl)benzamide] was tested, and the Ki was 17.9 nM. With `CC1(C)CCC(CN2CCN(c3ccc(C(=O)NS(=O)(=O)c4ccc(NCC5COCCO5)c([N+](=O)[O-])c4)c(Oc4cnc(N)c(Br)c4)c3)CC2)=C(c2ccc(Cl)cc2)C1` (centres unmarked) [Example 361, 2-[(6-amino-5-bromopyridin-3-yl)oxy]-4-(4-{[2-(4-chlorophenyl)-4,4-dimethylcyclohex-1-en-1-yl]methyl}piperazin-1-yl)-N-({4-[(1,4-dioxan-2-ylmethyl)amino]-3-nitrophenyl}sulfonyl)benzamide] the Ki was 0.015 nM. Molecule `O=C(NS(=O)(=O)c1ccc(NCC2CCOCC2)c([N+](=O)[O-])c1)c1ccc(N2CCN(Cc3ccccc3-c3ccc(Cl)cc3)CC2)cc1Oc1ccc(OCCN2CCOCC2)cc1` [Example 94, 4-(4-((4′-chloro-1,1′-biphenyl-2-yl)methyl)piperazin-1-yl)-2-(4-(2-morpholin-4-ylethoxy)phenoxy)-N-((3-nitro-4-((tetrahydro-2H-pyran-4-ylmethyl)amino)phenyl)sulfonyl)benzamide] has a Ki of 561 nM. In the case of `CC1(C)CCC(CN2CCN(c3ccc(C(=O)NS(=O)(=O)c4ccc(OCC5CCOCC5)c([N+](=O)[O-])c4)c(Oc4cc5cc[nH]c5cc4F)c3)CC2)=C(c2ccc(Cl)cc2)C1` [Example 264, 4-(4-{[2-(4-chlorophenyl)-4,4-dimethylcyclohex-1-en-1-yl]methyl}piperazin-1-yl)-2-[(6-fluoro-1H-indol-5-yl)oxy]-N-{[3-nitro-4-(tetrahydro-2H-pyran-4-ylmethoxy)phenyl]sulfonyl}benzamide], the Ki is reported as 0.068 nM. For `CC1(C)CCC(CN2CCN(c3ccc(C(=O)NS(=O)(=O)c4ccc(NCC5COCCO5)c([N+](=O)[O-])c4)c(Oc4cnc(N)c(Cl)c4)c3)CC2)=C(c2ccc(Cl)cc2)C1` (centres unmarked) [Example 346, 2-[(6-amino-5-chloropyridin-3-yl)oxy]-4-(4-{[2-(4-chlorophenyl)-4,4-dimethylcyclohex-1-en-1-yl]methyl}piperazin-1-yl)-N-({4-[(1,4-dioxan-2-ylmethyl)amino]-3-nitrophenyl}sulfonyl)benzamide], the Ki was less than 0.01 nM. Work on `CN1CCC(Nc2ccc(S(=O)(=O)NC(=O)c3ccc(N4CCN(CC5=C(c6ccc(Cl)cc6)CC(C)(C)CC5)CC4)cc3Oc3ccc(N)c(Cl)c3)cc2[N+](=O)[O-])CC1` [Example 40, 2-(4-amino-3-chlorophenoxy)-4-(4-((2-(4-chlorophenyl)-4,4-dimethylcyclohex-1-en-1-yl)methyl)piperazin-1-yl)-N-((4-((1-methylpiperidin-4-yl)amino)-3-nitrophenyl)sulfonyl)benzamide] yielded a Ki of 0.019 nM. `C#Cc1cc(S(=O)(=O)NC(=O)c2ccc(N3CCN(CC4=C(c5ccc(Cl)cc5)CC(C)(C)OC4)CC3)cc2Oc2cc3cc[nH]c3cc2F)cnc1OCC1CCOCC1` [Example 323, 4-(4-{[4-(4-chlorophenyl)-6,6-dimethyl-5,6-dihydro-2H-pyran-3-yl]methyl}piperazin-1-yl)-N-{[5-ethynyl-6-(tetrahydro-2H-pyran-4-ylmethoxy)pyridin-3-yl]sulfonyl}-2-[(6-fluoro-1H-indol-5-yl)oxy]benzamide] showed a Ki of 3.48 nM. Molecule `CN1CC[C@H](Nc2ccc(S(=O)(=O)NC(=O)c3ccc(N4CCN(CC5=C(c6ccc(Cl)cc6)CC(C)(C)CC5)CC4)cc3Oc3cccc(Cl)c3)cc2[N+](=O)[O-])C1` [Example 194, 2-(3-chlorophenoxy)-4-(4-{[2-(4-chlorophenyl)-4,4-dimethylcyclohex-1-en-1-yl]methyl}piperazin-1-yl)-N-[(4-{[(3S)-1-methylpyrrolidin-3-yl]amino}-3-nitrophenyl)sulfonyl]benzamide] has a Ki of 0.317 nM. In the case of `Cc1nc2ccc(Oc3cc(N4CCN(Cc5ccccc5-c5ccc(Cl)cc5)CC4)ccc3C(=O)NS(=O)(=O)c3ccc(NCC4CCOCC4)c([N+](=O)[O-])c3)cc2s1` [Example 23, 4-(4-((4′-chloro-1,1′-biphenyl-2-yl)methyl)piperazin-1-yl)-2-((2-methyl-1,3-benzothiazol-6-yl)oxy)-N-((3-nitro-4-((tetrahydro-2H-pyran-4-ylmethyl)amino)phenyl)sulfonyl)benzamide], the Ki is reported as 8.27 nM.
